Experimental findings from PubChem BioAssay (NCI) are described below.

Holding throughout (test): DTP human tumour cell line panel, 48 h
The subject of assay [1] is COLO 205 colon.
For assay [2], the system named is BT-549 breast.
Assay [3] deals with SK-MEL-28 melanoma.
Assay [4] deals with OVCAR-3 ovarian.
Assay [5] has as its system SF-295 CNS.
Assay [6] deals with HS 578T breast.
In assay [7] the test system is EKVX NSCLC.

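Test compounds were applied to cells in 96-well plates for 48 hours at 5 doses. TGI marks complete inhibition of growth.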 A value given as a limit tells only on which side of the number the result lay.

The term TGI denotes the concentration giving total growth inhibition. With `Nc1nc2c(c(=O)[nH]1)C(c1ccccc1)CC(=O)N2` (centres undefined), the TGI in assay [1], in assay [2], in assay [3], in assay [4], in assay [5] and in assay [6] was above 100 µM in each case. This compound gave a TGI in assay [7] above 100 µM.

For the compound `Cc1cc(C)c(S(=O)(=O)N2CCCN(S(=O)(=O)c3c(C)cc(C)cc3C)OCCCO2)c(C)c1`, the TGI in assay [1], in assay [2], in assay [3], in assay [4], in assay [5] and in assay [6] was above 100 µM each time. Moreover, in assay [7], the TGI was above 100 µM.

In the case of `N#Cc1c(=O)c2ccccc2n2c1[nH]c1ccccc12`, the TGI in assay [1], in assay [2], in assay [3], in assay [4], in assay [5] and in assay [6] was above 100 µM throughout. This compound also returned a TGI in assay [7] above 100 µM.

For `Nc1nc(Cl)c(/C=N\O)c(NCC2(CO)CCC2)n1`, the TGI in assay [1], in assay [2], in assay [3], in assay [4], in assay [5] and in assay [6] was above 100 µM throughout. The TGI in assay [7] is above 100 µM.

With `C=CC1CCC[N+]1(CC(=O)OCC)Cc1ccccc1` (centres undefined), the TGI in assay [1], in assay [2], in assay [3], in assay [4], in assay [5] and in assay [7] was above 100 µM throughout.

On to `Cc1c(CCN2CCOCC2)c(N2CCOCC2)n2c(nc3ccccc32)c1C#N`, for which the TGI in assay [1], in assay [2], in assay [3], in assay [4], in assay [5] and in assay [6] was above 10 µM in each case. The same compound displayed a TGI in assay [7] above 10 µM.

In the case of `CCCCCCc1ccc(C(=O)NO)cc1`, the TGI in assay [1], in assay [2], in assay [3], in assay [4], in assay [5] and in assay [6] was above 100 µM in each case. In assay [7], the concentration for total growth inhibition (TGI) is above 100 µM.

With `Nc1c2ccccc2nc2ccc3c(=O)cc(-c4ccccc4)oc3c12`, the TGI was found to be 1.35 µM in assay [1]; 59.7 µM in assay [2]; 3.21 µM in assay [3]; 2.85 µM in assay [4]; 2.8 µM in assay [7].

Consider `O=S(=O)(c1ccccc1)C(c1ccc2ccccc2n1)S(=O)(=O)c1ccccc1`, for which the TGI in assay [1], in assay [2], in assay [3], in assay [4], in assay [5] and in assay [6] was above 100 µM each time. Further, the TGI in assay [7] was above 100 µM.

As for `CN1C/C(=C\c2cccs2)C2=NN(C)C(c3cccs3)C2C1` (centres undefined), the TGI in assay [1], in assay [2], in assay [3], in assay [4], in assay [5] and in assay [6] was above 100 µM throughout. For the same compound, the total growth inhibition concentration (TGI) in assay [7] was above 100 µM.

Regarding `C=CCN1C(=O)/C(=C\c2cc(C(C)(C)C)c(O)c(C(C)(C)C)c2)NC1=S`, the concentration for total growth inhibition (TGI) in assay [1] was 32.4 µM; in assay [2] it was above 100 µM; in assay [3], above 100 µM; in assay [4] it was 39.6 µM; in assay [5], 68.3 µM; in assay [6], above 100 µM. In assay [7], this compound displayed a TGI of 65.1 µM.

Consider `N#CC1C(=O)SC2c3ccccc3C(=O)c3ccccc3C12` (centres undefined), for which the TGI in assay [1], in assay [2], in assay [3], in assay [4], in assay [5] and in assay [6] was above 10 µM throughout. The compound also came in with a TGI in assay [7] above 10 µM.

`O=C1c2ccccc2CN1c1ccc(OCCN2CCCCC2)cc1`: the TGI in assay [1], in assay [2], in assay [3], in assay [4], in assay [5] and in assay [6] was above 10 µM throughout. The same compound had a TGI in assay [7] above 10 µM.

As to `CC(NO)/C(=N/O)c1ccco1` (centres undefined), the total growth inhibition concentration (TGI) in assay [1], in assay [2], in assay [4], in assay [5] and in assay [7] was above 10 µM in each case.

`Nn1c(CCCCCCCCc2nnc(COc3ccc4ccccc4c3O)n2N)nnc1COc1ccc2ccccc2c1O`: the TGI is 35.1 µM in assay [1]; 69.5 µM in assay [2]; above 100 µM in assay [3]; 98.1 µM in assay [5]; above 100 µM in assay [7].

Consider `CN(C)CCCn1c(Cc2ccc(Cl)cc2)nc2cc(C(F)(F)F)ccc21`, for which the TGI in assay [1] amounted to 29.3 µM; in assay [2], 32.4 µM; in assay [3], 33.5 µM; in assay [4] it was 27.6 µM; in assay [5], 31.4 µM; in assay [6], 33.6 µM. For the same compound, the TGI in assay [7] was 32.7 µM.

On to `O=C1c2ccccc2C(=O)N1CC1S(=O)(=O)OCCOS1(=O)=O`, for which the TGI in assay [1], in assay [3], in assay [4], in assay [5], in assay [6] and in assay [7] was above 100 µM in each case.

For `CCN(CC)c1ccc2cc(C(N)=S)c(=N)oc2c1`, the TGI in assay [1], in assay [2], in assay [3], in assay [5], in assay [6] and in assay [7] was above 100 µM each time.

In the case of `O=c1[nH]/c(=C/c2ccc(OCc3ccccc3)cn2)c(=O)[nH]/c1=C/c1ccc(F)cc1`, the TGI was 6.75 µM in assay [1]; above 58.5 µM in assay [2]; above 100 µM in assay [3]; 1.42 µM in assay [4]; above 27.5 µM in assay [5]; 15.7 µM in assay [6]. For the same compound, the TGI in assay [7] is above 93.6 µM.
